Test results reported in patent publication US11242354B2, “4-sulfur substituted podophyllotoxin derivative and preparation method therefor and use thereof” (priority 2017, dated 2022).
Like-named read-outs stand apart in the source and are kept apart here.

Experiments:
HepG2 = experiment: MTT test for inhibition of tumor cells, HepG2; type: cell-based; conditions: 48 h
Procedure: (§1) HepG2, HeLa cell lines and human normal liver cells HL-7702 in a logarithmic growth period were centrifuged at 1000 rpm for 5 min, and the supernatant was discarded, the cells were suspended with a suitable amount of culture medium to adjust the cell concentration to 3.5×10^4/well, the cells were seeded in 96-well plates, and the following experimental groups were set:
(§2) 100 μl of DMSO was added to each well, followed by shaking on a shaker for 30 min at 37° C., the absorbance (OD) was measured at 492 nm, and the MTT ratio was calculated as the OD value of drug group/OD value of negative control group.

[1] = tested on: human normal hepatocytes HL-7702; experiment: MTT test on human normal hepatocytes HL-7702; conditions: read-out: IC50 HL-7702
Procedure: as §1, §2

HeLa = experiment: MTT test for inhibition of tumor cells, HeLa; type: cell-based; conditions: 48 h
Procedure: as §1, §2

[2] = tested on: human mammary epithelial cells HMEC; experiment: Toxicity on normal cell line HMEC; type: cell-based
breast cancer cell MCF7 = experiment: Activity on tumor cell MCF7; type: cell-based, human; conditions: for antitumor activity on MCF7 compared with etoposide: vs etoposide
[3] = tested on: human embryonic lung cells MRC-5; experiment: Toxicity on normal cell line MRC-5; type: cell-based; conditions: MRC5
[4] = tested on: human cervical immortalized cells H8; experiment: Toxicity on normal cell line H8; type: cell-based
[5] = tested on: human lung cancer cell A549; experiment: Activity on tumor cell A549; type: cell-based; conditions: vs etoposide
[6] = tested on: human normal hepatocytes HL-7702
Procedure: as §1, §2

[7] = human normal hepatocytes HL-7702, MTT, 48 h

Compound	IC50 (HepG2) [µM]	IC50 [1, 7] [µM]	IC50 (HeLa) [µM]	also measured
COc1cc(C2c3cc4c(cc3C(Sc3ccc(F)cc3)C3COC(=O)C23)OCO4)cc(OC)c1OC (stereo not drawn) [Compound 5, 4β-S-(4-fluorobenzene-1)-podophyllotoxin]	2.28 ± 0.1	44.5 ± 1	9.5 ± 0.43	–
COc1cc(C2c3cc4c(cc3C(Sc3cc(C(F)(F)F)ccn3)C3COC(=O)C23)OCO4)cc(OC)c1OC (stereo not drawn) [Compound 1, 4-β-S-(4-trifluoromethylpyridin-2)-podophyllotoxin]	2.04 ± 0.3	57 ± 1.1	1.86 ± 0.2	–
4β-S-(6-chlorobenzoxazol-2)-podophyllotoxin [Compound 15]	5.23 ± 0.35	43.3 ± 3.5	7.23 ± 0.44	–
4β-S-(6-chlorobenzoxazol-2)-4demethylepipodophyllotoxin [Compound 16]	22.3 ± 1.46	68.3 ± 4.5	32.3 ± 1.87	–
4β-S-(5-phenylbenzoxazol-2)-podophyllotoxin [Compound 11]	5.25 ± 0.13	70.7 ± 1.65	> 100	–
COc1cc(C2c3cc4c(cc3C(Sc3nccc(C(F)(F)F)n3)C3COC(=O)C23)OCO4)cc(OC)c1OC (stereo not drawn) [Compound 3, 4-β-S-(4-trifluoromethylpyrimidin-2)-podophyllotoxin]	5.05 ± 0.78	69.8 ± 1.23	10.1 ± 0.22	–
COc1cc(C2c3cc4c(cc3C(Sc3cc(C(F)(F)F)ccn3)C3COC(=O)C23)OCO4)cc(OC)c1O (stereo not drawn) [Compound 2, 4-β-S-(4-trifluoromethylpyridin-2)-4demethylepipodophyllotoxin]	4.5 ± 0.45	42.3 ± 1.52	4.58 ± 0.13	–
COc1cc([C@@H]2c3cc4c(cc3[C@@H](O[C@@H]3O[C@@H]5CO[C@@H](C)O[C@H]5[C@H](O)[C@H]3O)[C@H]3COC(=O)[C@H]23)OCO4)cc(OC)c1O [Etoposide, etoposide, reference compound]	–	–	–	IC50 [2]: 23.2 ± 1.34 µM; IC50 (HepG2; Homo sapiens): 20.7 ± 1.7 µM; IC50 (breast cancer cell MCF7; Homo sapiens, tumor cell line MCF7): 56.8 ± 1.22 µM; IC50 [3]: 30.3 ± 1.21 µM; IC50 [4]: 80.1 ± 1.35 µM; IC50 ([1]; Homo sapiens, L02, 48 h): 28.8 ± 3.4 µM; IC50 (HeLa; Homo sapiens): 25.4 ± 2.9 µM
COc1cc(C2c3cc4c(cc3C(Sc3nc5cc(OC(F)F)ccc5[nH]3)C3COC(=O)C23)OCO4)cc(OC)c1OC (stereo not drawn) [Compound 17, 4β-S-(5-difluoromethoxybenzimidazol-2)-podophyllotoxin]	0.92 ± 0.05	8.15 ± 0.87	1.15 ± 0.16	–
COc1cc(C2c3cc4c(cc3C(Sc3ccc5ccccc5c3)C3COC(=O)C23)OCO4)cc(OC)c1OC (stereo not drawn) [Compound 19, 4β-S-(naphthalen-2)-podophyllotoxin]	3.06 ± 0.11	90.9 ± 3.49	3.91 ± 0.42	–
COc1cc(C2c3cc4c(cc3C(Sc3nc5cc(F)ccc5s3)C3COC(=O)C23)OCO4)cc(OC)c1OC (stereo not drawn) [Compound 7, 4β-S-(5-fluorobenzothiazol-2)-podophyllotoxin]	1 ± 0.06	97 ± 2.1	1.47 ± 0.32	–
COc1cc(C2c3cc4c(cc3C(Sc3nnnn3-c3ccccc3)C3COC(=O)C23)OCO4)cc(OC)c1OC (stereo not drawn) [Compound 23, 4β-S-(1-phenyltetrazol-5)-podophyllotoxin]	6.17 ± 0.27	87.1 ± 4.2	15.8 ± 0.56	–
COc1cc([C@@H]2c3cc4c(cc3[C@@H](Sc3nc(-c5ccncc5)cs3)[C@H]3COC(=O)[C@H]23)OCO4)cc(OC)c1O [Compound 28, 4β-S-(4-(4-pyridyl)thiazol-2)-4demethylepipodophyllotoxin]	29.2 ± 1.34	60.1 ± 2.88	24.1 ± 1.29	–
4β-S-(3-phenyl-1,3,4-thiadiazol-2(3H)thione potassium salt-5)-podophyllotoxin [Compound 25]	2.2 ± 0.28	–	31.9 ± 0.42	–
4β-S-(5-phenylbenzoxazol-2)-4demethylepipodophyllotoxin [Compound 12]	10.2 ± 0.46	56.8 ± 1.32	> 100	–
COc1cc([C@@H]2c3cc4c(cc3[C@@H](Sc3nc(-c5ccncc5)cs3)[C@H]3COC(=O)[C@H]23)OCO4)cc(OC)c1OC [Compound 27, 4β-S-(4-(4-pyridyl)thiazol-2)-podophyllotoxin]	0.89 ± 0.19	71.4 ± 2.71	1.95 ± 0.36	–
COc1cc(C2c3cc4c(cc3C(Sc3nc5cc(OC(F)F)ccc5[nH]3)C3COC(=O)C23)OCO4)cc(OC)c1O (stereo not drawn) [Compound 18, 4β-S-(5-difluoromethoxybenzimidazol-2)-4demethylepipodophyllotoxin]	2.09 ± 0.17	11.3 ± 1.87	7.6 ± 0.51	–
COc1cc(C2c3cc4c(cc3C(Sc3nc5cc(F)ccc5o3)C3COC(=O)C23)OCO4)cc(OC)c1OC (stereo not drawn) [Compound 9, 4β-S-(5-fluorobenzoxazol-2)-podophyllotoxin]	0.89 ± 0.07	> 1000	–	–
4β-S-(3-phenyl-1,3,4-thiadiazol-2(3H)thione potassium salt-5)-4demethylepipodophyllotoxin [Compound 26]	5.7 ± 0.33	–	48.49 ± 0.38	–
COc1cc(C2c3cc4c(cc3C(Sc3nc5ncccc5[nH]3)C3COC(=O)C23)OCO4)cc(OC)c1OC (stereo not drawn) [Compound 21, 4β-S-(1H-imidazo [4,5-B]pyridin-2)-podophyllotoxin]	4.23 ± 0.36	56.6 ± 2.34	64.23 ± 0.45	–
COc1cc(C2c3cc4c(cc3C(Sc3nc5cc(C)ccc5o3)C3COC(=O)C23)OCO4)cc(OC)c1OC (stereo not drawn) [Compound 13, 4β-S-(5-methylbenzoxazol-2)-podophyllotoxin]	7.31 ± 0.4	60.1 ± 1.6	9.31 ± 0.6	–
COc1cc([C@@H]2c3cc4c(cc3[C@@H](Sc3nc5cc(F)ccc5s3)[C@H]3COC(=O)[C@H]23)OCO4)cc(OC)c1O [Compound 8, 4β-S-(5-fluorobenzothiazol-2)-4demethylepipodophyllotoxin]	–	–	–	antitumor activity on A549 compared with etoposide [5]: significantly improved; antitumor activity on MCF7 compared with etoposide (breast cancer cell MCF7): significantly improved; toxicity on HL-7702 cell line compared with control compounds [6]: significantly lower
COc1cc(C2c3cc4c(cc3C(Sc3nc5cc(C)ccc5o3)C3COC(=O)C23)OCO4)cc(OC)c1O (stereo not drawn) [Compound 14, 4β-S-(5-methylbenzoxazol-2)-4demethylepipodophyllotoxin]	7.94 ± 0.21	78.7 ± 2.5	11.9 ± 0.99	–
COc1cc([C@@H]2c3cc4c(cc3[C@H](O)[C@H]3COC(=O)[C@H]23)OCO4)cc(OC)c1OC [Podophyllotoxin, podophyllotoxin]	–	–	–	IC50 (HepG2; Homo sapiens): 55.53 ± 0.24 µM; IC50 ([1]; Homo sapiens, L02, 48 h): 67.18 ± 0.24 µM; IC50 (HeLa; Homo sapiens): 75.81 ± 0.73 µM
COc1cc(C2c3cc4c(cc3C(Sc3nccc(C(F)(F)F)n3)C3COC(=O)C23)OCO4)cc(OC)c1O (stereo not drawn) [Compound 4, 4-β-S-(4-trifluoromethylpyrimidin-2)-4demethylepipodophyllotoxin]	7.37 ± 0.32	54.9 ± 0.98	39.36 ± 0.35	–
COc1cc([C@@H]2c3cc4c(cc3[C@@H](Sc3nc5cc(F)ccc5o3)[C@H]3COC(=O)[C@H]23)OCO4)cc(OC)c1O [Compound 10, 4β-S -(5-fluorobenzoxazol-2)-4demethylepipodophyllotoxin]	–	–	–	antitumor activity on A549 compared with etoposide [5]: significantly improved; antitumor activity on MCF7 compared with etoposide (breast cancer cell MCF7): significantly improved; toxicity on HL-7702 cell line compared with control compounds [6]: significantly lower
